Test results as given in patent US20090048155A1 (priority 2007, published 2009).

What was measured:
Y. pestis CO99pgm- [1] = tested on: Y. pestis CO99pgm-; design: species or system Sprague-Dawley rats; settings: rat, in vivo
Y. pestis CO99pgm- [2] = tested on: Y. pestis CO99pgm-; design: species or system Sprague-Dawley rats; settings: rat, in vivo; remark: listed apart in the source

With `O=C(O)c1cn(C2CC2)c2cc(N3CCNCC3)c(F)cc2c1=O` [Cipro, ciprofloxacin] the 6-day survival rate (Y. pestis CO99pgm- [1]) was 100%, the “Median Survival Time” value (Y. pestis CO99pgm- [1]) was 84 h and the Survival (Y. pestis CO99pgm- [1]) was 28%. For the same molecule, the “leukocyte infiltration index (LII)” value (Y. pestis CO99pgm- [2]) was “did not significantly improve”, the lung edema (Y. pestis CO99pgm- [2]) was “did not significantly improve” and the “lung scores (combined interstitial and alveolar edema and hemorrhage and LII scores)” value (Y. pestis CO99pgm- [2]) was “did not significantly improve”.
